From patent publication US9814704B2, “Substituted pyrrolo[2,3-b]pyridines as MLK inhibitors” (The University of Rochester, priority 2008, dated 2017)
pIC50: −log10 of the molar value. Counter-ions that a name gives are not always drawn.

Biological target: MLK3 (Homo sapiens (Human), UniProt Q16584)
Assay: Radiometric Filter Plate MLK3 Assay
Type: biochemical
Settings: 200 ng (130 nM) MLK3, 1 μM inactive MKK7b, 2 μM cold ATP (Km), 33P ATP, twenty minute incubation; read-out: MK3 IC50
Procedure: Radiometric Filter Plate MLK3 Assay
After a twenty minute incubation, the reactions were washed through filter plates and read on a scintillation counter. Results are shown in Table 4 below, in which +++ indicates ≦0.1 μM, ++ indicates >0.1 μM and ≦1 μM, and + indicates >1 μM.

Chain of MLK3 (Q16584 whole entry): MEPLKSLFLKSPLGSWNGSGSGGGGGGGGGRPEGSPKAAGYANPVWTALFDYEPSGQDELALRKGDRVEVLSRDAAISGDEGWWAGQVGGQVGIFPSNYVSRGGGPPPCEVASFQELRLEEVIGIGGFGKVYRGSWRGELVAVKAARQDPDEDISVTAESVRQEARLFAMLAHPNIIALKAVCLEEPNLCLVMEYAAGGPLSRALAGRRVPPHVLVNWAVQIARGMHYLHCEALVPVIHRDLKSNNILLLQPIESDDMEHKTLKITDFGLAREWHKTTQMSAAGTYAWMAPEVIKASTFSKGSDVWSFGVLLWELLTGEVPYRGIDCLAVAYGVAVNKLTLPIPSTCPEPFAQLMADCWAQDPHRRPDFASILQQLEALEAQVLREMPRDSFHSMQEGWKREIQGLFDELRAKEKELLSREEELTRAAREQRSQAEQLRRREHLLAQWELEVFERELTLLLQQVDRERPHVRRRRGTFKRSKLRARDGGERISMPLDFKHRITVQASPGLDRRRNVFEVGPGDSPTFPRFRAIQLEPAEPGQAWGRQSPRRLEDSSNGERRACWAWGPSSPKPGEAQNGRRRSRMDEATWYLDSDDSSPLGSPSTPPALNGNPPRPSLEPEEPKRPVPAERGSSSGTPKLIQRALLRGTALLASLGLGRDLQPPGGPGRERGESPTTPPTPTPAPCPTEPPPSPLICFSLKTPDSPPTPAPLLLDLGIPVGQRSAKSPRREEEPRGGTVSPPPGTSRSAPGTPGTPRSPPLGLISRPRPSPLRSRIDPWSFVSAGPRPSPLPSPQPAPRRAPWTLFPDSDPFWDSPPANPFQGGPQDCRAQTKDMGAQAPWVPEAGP

| Structure (SMILES) | pIC50 |
| --- | --- |
| COc1cc(-c2nc3c(nc2Cl)[nH]c(=O)n3CC2CC2)cc(OC)c1OC [Example 119, 5-chloro-1-(cyclopropylmethyl)-6-(3,4,5-trimethoxyphenyl)-1H-imidazo[4,5-b]pyrazin-2(3H)-one] | < 6.00 |
| COc1cc(-c2cnc3[nH]c(=O)n(-c4cnc5[nH]ccc5c4)c3n2)cc(OC)c1OC [Example 112, 1-(1H-pyrrolo[2,3-b]pyridin-5-yl)-6-(3,4,5-trimethoxyphenyl)-1H-imidazo[4,5-b]pyrazin-2(3H)-one] | > 7.00 |
| Cc1cc(C)cc(-c2cnc3[nH]c(=O)n(-c4ccc5cn[nH]c5c4)c3n2)c1 [Example 95, 6-(3,5-dimethylphenyl)-1-(1H-indazol-6-yl)-1H-imidazo[4,5-b]pyrazin-2(3H)-one] | < 6.00 |
| Nc1ncc(-c2cnc3[nH]cc(-c4cnc(N)nc4)c3c2)cn1 [Example 20, 5,5′-(1H-pyrrolo[2,3-b]pyridine-3,5-diyl)dipyrimidin-2-amine] | < 6.00 |
| COc1ccc(-n2c(=O)[nH]c3ncc(-c4ccc(OC)c(OC)c4)nc32)cc1 [Example 69, 6-(3,4-dimethoxyphenyl)-1-(4-methoxyphenyl)-1H-imidazo[4,5-b]pyrazin-2(3H)-one] | < 6.00 |
| Cc1cc(C)cc(-c2cnc3[nH]c(=O)n(-c4ccc5scnc5c4)c3n2)c1 [Example 99, 1-(benzo[d]thiazol-5-yl)-6-(3,5-dimethylphenyl)-1H-imidazo[4,5-b]pyrazin-2(3H)-one] | < 6.00 |
| COc1cc(-c2cnc3c(c2)C(=Cc2ccc(C#N)cc2)C(=O)N3)cc(OC)c1OC [Example 133, 4-[2-oxo-5-(3,4,5-trimethoxy-phenyl)-1,2-dihydro-pyrrolo[2,3-b]pyridin-3-ylidenemethyl]-benzonitrile] | < 6.00 |
| O=c1[nH]c2ncc(-c3ccc(N4CCOCC4)cc3)nc2n1CC1CC1 [Example 86, 1-(cyclopropylmethyl)-6-(4-morpholinophenyl)-1H-imidazo[4,5-b]pyrazin-2(3H)-one] | < 6.00 |
| Cc1cc(C)cc(-c2cnc3[nH]c(=O)n(-c4ccc5c(ccn5C)c4)c3n2)c1 [Example 43, 6-(3,5-dimethylphenyl)-1-(1-methyl-1H-indol-5-yl)-1H-imidazo[4,5-b]pyrazin-2(3H)-one] | < 6.00 |
| O=c1[nH]c2ncc(-c3ccncc3)nc2n1CC1CC1 [Example 82, 1-(cyclopropylmethyl)-6-(pyridin-4-yl)-1H-imidazo[4,5-b]pyrazin-2(3H)-one] | < 6.00 |
| O=c1[nH]c2ncc(-c3ccncc3)nc2n1C1CCCC1 [Example 77, 1-cyclopentyl-6-(pyridin-4-yl)-1H-imidazo[4,5-b]pyrazin-2(3H)-one] | < 6.00 |
| COc1cc(-c2cnc3[nH]c(=O)n(C4Cc5ccccc5C4)c3n2)cc(OC)c1OC [Example 110, 1-(2,3-dihydro-1H-inden-2-yl)-6-(3,4,5-trimethoxyphenyl)-1H-imidazo[4,5-b]pyrazin-2(3H)-one] | > 7.00 |
| Cc1cc2cc(-n3c(=O)[nH]c4ncc(-c5cc(Cl)cc(Cl)c5)nc43)ccc2[nH]1 [Example 73, 6-(3,5-dichlorophenyl)-1-(2-methyl-1H-indol-5-yl)-1H-imidazo[4,5-b]pyrazin-2(3H)-one] | < 6.00 |
| COc1cc(-c2cnc3[nH]c(=O)n(CC4CC4)c3c2)cc(OC)c1OC [Example 125, 1-(cyclopropylmethyl)-6-(3,4,5-trimethoxyphenyl)-1H-imidazo[4,5-b]pyridin-2(3H)-one] | < 6.00 |
| COc1ccc(-c2cnc3[nH]c(=O)n(C4CCCC4)c3n2)cc1OC [Example 75, 1-cyclopentyl-6-(3,4-dimethoxyphenyl)-1H-imidazo[4,5-b]pyrazin-2(3H)-one] | < 6.00 |
| O=c1[nH]c2ncc(-c3ccc(N4CCOCC4)cc3)nc2n1-c1ccc2[nH]ncc2c1 [Example 89, 1-(1H-indazol-5-yl)-6-(4-morpholinophenyl)-1H-imidazo[4,5-b]pyrazin-2(3H)-one] | < 6.00 |
| O=c1[nH]c2ncc(-c3ccc(O)cc3)nc2n1CC1CC1 [Example 81, 1-(cyclopropylmethyl)-6-(4-hydroxyphenyl)-1H-imidazo[4,5-b]pyrazin-2(3H)-one] | < 6.00 |
| NC(=O)c1ccc(-c2c[nH]c3ncc(-c4ccc(C(=O)N5CCNCC5)cc4)cc23)cc1 [Example 149, 4-{5-[4-(piperazine-1-carbonyl)-phenyl]-1H-pyrrolo[2,3-b]pyridin-3-yl}-benzamide, hydrochloride salt] | > 7.00 |

Further lines, results first:

| pIC50 | Structure (SMILES) |
| --- | --- |
| > 7.00 | O=C1CN(Cc2ccc(-c3cnc4[nH]cc(-c5ccc6[nH]ccc6c5)c4c3)cc2)CCN1 [Example 142, 4-{4-[3-(1H-indol-5-yl)-1H-pyrrolo[2,3-b]pyridin-5-yl]-benzyl}-piperazin-2-one] |
| > 7.00 | CN1CCN(Cc2cccc(-c3cnc4[nH]cc(-c5ccc6[nH]ccc6c5)c4c3)c2)CC1=O [Example 143, 4-{3-[3-(1H-indol-5-yl)-1H-pyrrolo[2,3-b]pyridin-5-yl]-benzyl}-1-methyl-piperazin-2-one] |
| > 7.00 | COc1ccc(-c2cnc3[nH]cc(-c4ccc5[nH]ccc5c4)c3n2)cc1OC [Example 37, 2-(3,4-dimethoxyphenyl)-7-(1H-indol-5-yl)-5H-pyrrolo[3,2-b]pyrazine] |
| > 7.00 | O=c1[nH]c2ncc(-c3cc(F)c(O)c(F)c3)nc2n1-c1ccc2[nH]ccc2c1 [Example 59, 6-(3,5-difluoro-4-hydroxyphenyl)-1-(1H-indol-5-yl)-1H-imidazo[4,5-b]pyrazin-2(3H)-one] |
| < 6.00 | O=c1[nH]c2ncc(-c3ccc4cc[nH]c4c3)nc2n1-c1ccc2[nH]ccc2c1 [Example 56, 1-(1H-indol-5-yl)-6-(1H-indol-6-yl)-1H-imidazo[4,5-b]pyrazin-2(3H)-one] |
| > 7.00 | COc1cc(-c2cnc3[nH]cc(-c4ccc(C(N)=O)cc4)c3c2)cc(OC)c1OC [Example 25, 4-(5-(3,4,5-trimethoxyphenyl)-1H-pyrrolo[2,3-b]pyridin-3-yl)benzamide] |
| > 7.00 | COc1cc(-c2cnc3[nH]cc(-c4ccc5c(ccn5C)c4)c3c2)cc(OC)c1OC [Example 24, 3-(1-methyl-1H-indol-5-yl)-5-(3,4,5-trimethoxyphenyl)-1H-pyrrolo[2,3-b]pyridine] |
| < 6.00 | Nc1ccc(-c2cnc3[nH]cc(-c4ccc(F)c(Cl)c4)c3c2)cn1 [Example 29, 5-(3-(3-chloro-4-fluorophenyl)-1H-pyrrolo[2,3-b]pyridin-5-yl)pyridin-2-amine] |

Same assay, conditions: read-out: MK3 IC50

| Structure (SMILES) | pIC50 |
| --- | --- |
| COc1ccc(-c2cnc3[nH]c(=O)n(-c4ccc5cn[nH]c5c4)c3n2)cc1OC [Example 91, 6-(3,4-dimethoxyphenyl)-1-(1H-indazol-6-yl)-1H-imidazo[4,5-b]pyrazin-2(3H)-one] | 6.00 to 7.00 |
| COc1ccc(-c2cnc3[nH]c(=O)n(CC4CC4)c3n2)cc1OC [Example 79, 1-(cyclopropylmethyl)-6-(3,4-dimethoxyphenyl)-1H-imidazo[4,5-b]pyrazin-2(3H)-one] | 6.00 to 7.00 |
| O=c1[nH]c2ncc(-c3cc(F)c(O)cc3F)nc2n1-c1ccc2[nH]ccc2c1 [Example 58, 6-(2,5-difluoro-4-hydroxyphenyl)-1-(1H-indol-5-yl)-1H-imidazo[4,5-b]pyrazin-2(3H)-one] | 6.00 to 7.00 |
| Cc1cc2cc(-n3c(=O)[nH]c4ncc(-c5ccc(O)cc5)nc43)ccc2[nH]1 [Example 84, 6-(4-hydroxyphenyl)-1-(2-methyl-1H-indol-5-yl)-1H-imidazo[4,5-b]pyrazin-2(3H)-one] | 6.00 to 7.00 |
| O=c1[nH]c2ncc(-c3ccc(N4CCOCC4)cc3)nc2n1-c1ccc(O)cc1 [Example 116, 1-(4-hydroxyphenyl)-6-(4-morpholinophenyl)-1H-imidazo[4,5-b]pyrazin-2(3H)-one] | 6.00 to 7.00 |
| O=c1[nH]c2ncc(-c3ccncc3)nc2n1-c1ccc2cn[nH]c2c1 [Example 93, 1-(1H-indazol-6-yl)-6-(pyridin-4-yl)-1H-imidazo[4,5-b]pyrazin-2(3H)-one] | 6.00 to 7.00 |
| COc1cc(-c2cnc3[nH]c(=O)n(-c4ccc(O)cc4)c3n2)cc(OC)c1OC [Example 114, 1-(4-hydroxyphenyl)-6-(3,4,5-trimethoxyphenyl)-1H-imidazo[4,5-b]pyrazin-2(3H)-one] | 6.00 to 7.00 |
| COc1cc(-c2cnc3[nH]c(=O)n(C4CCCC4)c3n2)ccc1OCCN1CCOCC1 [Example 108, 1-cyclopentyl-6-(3-methoxy-4-(2-morpholinoethoxy)phenyl)-1H-imidazo[4,5-b]pyrazin-2(3H)-one] | 6.00 to 7.00 |
| COc1cc(-c2cnc3[nH]c(=O)n(CC4CC4)c3n2)ccc1OCCN1CCOCC1 [Example 107, 1-(cyclopropylmethyl)-6-(3-methoxy-4-(2-morpholinoethoxy)phenyl)-1H-imidazo[4,5-b]pyrazin-2(3H)-one] | 6.00 to 7.00 |

The remaining lines, values ahead:

| pIC50 | Structure (SMILES) |
| --- | --- |
| < 6.00 | CC(=O)N1CCN(Cc2ccc(-c3cnc4[nH]cc(-c5ccc6[nH]ccc6c5)c4c3)cc2)CC1 [Example 140, 1-(4-{4-[3-(1H-indol-5-yl)-1H-pyrrolo[2,3-b]pyridin-5-yl]-benzyl}-piperazin-1-yl)-ethanone] |
| 6.00 to 7.00 | COc1cc(-c2cnc3[nH]cc(-c4ccc(C(N)=O)cc4)c3c2)ccc1N [Example 27, 4-(5-(4-amino-3-methoxyphenyl)-1H-pyrrolo[2,3-b]pyridin-3-yl)benzamide] |
| > 7.00 | COc1cc(-c2cnc3[nH]cc(-c4ccc5[nH]ccc5c4)c3c2)ccc1OCCN1CCNCC1 [Example 34, 3-(1H-indol-5-yl)-5-(3-methoxy-4-(2-(piperazin-1-yl)ethoxy)phenyl)-1H-pyrrolo[2,3-b]pyridine] |
| 6.00 to 7.00 | COc1cc(-c2cnc3[nH]cc(-c4ccc(-c5ncc[nH]5)cc4)c3c2)cc(OC)c1OC [Example 167, 3-[4-(1H-imidazol-2-yl)-phenyl]-5-(3,4,5-trimethoxy-phenyl)-1H-pyrrolo[2,3-b]pyridine] |
| 6.00 to 7.00 | Nc1ccc(-c2c[nH]c3ncc(-c4ccc(N)nc4)cc23)cc1 [Example 23, 5-(3-(4-aminophenyl)-1H-pyrrolo[2,3-b]pyridin-5-yl)pyridin-2-amine] |
